Laboratory results reported in patent publication US11390661B2, “HCMV entry inhibitors” (priority 2016, dated 2022).
Ends that are not written are not given here.

B1: PDGFR-beta-Fc: recombinant Fc-fusion protein obtained from R&D (385-PR-100), comparison chimera (protein)
chain: LVVTPPGPELVLNVSSTFVLTCSGSAPVVWERMSQEPPQEMAKAQDGTFSSVLTLTNLTGLDTGEYFCTHNDSRGLETDERKRLYIFVPDPTVGFLPNDAEELFIFLTEITEITIPCRVTDPQLVVTLHEKKGDVALPVPYDHQRGFSGIFEDRSYICKTTIGDREVDSDAYYVYRLQVSSINVSVNAVQTVVRQGENITLMCIVIGNEVVNFEWTYPRKESGRLVEPVTDFLLDMPYHIRSILHIPSAELEDSGTYTCNVTESVNDHQDEKAINITVVESGYVRLLGEVGTLQFAELHRSRTLQVVFEAYPPPTVLWFKDNRTLGDSSAGEIALSTRNVSETRYVSELTLVRVKVAEAGHYTMRAFHEDAEVQLSFQLQINVPVRVLELSESHPDSGEQTVRCRGRGMPQPNIIWSACRDLKRCPRELPPTLLGNSSEEESQLETNVTYWEEEQEFEVVSTLRLQHVDRPLSVRCTLRNAVGQDTQEVIVVPHSLPF
modifications: left off: a dimerising Fc or GST
notes: recombinant Fc-fusion protein obtained from R&D (385-PR-100), comparison chimera

Columns and labels:
HCMV strain TB40/E [1] = format: cell-based, Human cytomegalovirus; conditions: HFFs
Experimental: For screening the PDGFRα peptides for their neutralizing capacity a recently developed Gaussia-Luciferase-Assay was utilized (10). The Gaussia luciferase is secreted into the cell culture supernatants, therefore it is not necessary to fix the cells and instead a sample of the Gaussia containing supernatant is taken and mixed with the substrate coelenterazine (PjK) at a final concentration of 0.2 μg/ml. The resulting light emission was detected at 495 nm. For all obtained values background signals were subtracted and neutralization efficiency was determined relative to the control samples which contained only virus, no peptide.
Cell free preparations of strain TB40/E were pre-incubated with the individual peptides at concentrations reaching from 0.05-50 nmol/ml for 2 h and the mixtures were then incubated with HFF cultures in a 96-well format. The various peptides differed greatly regarding their inhibitory potential with a region between aa120 and aa280 being absolutely ineffective and the peptides surrounding this region having the highest anti-HCMV effect (FIG. 9).

HCMV strain TB40/E [2] = experiment: Inhibition of infection of fibroblasts (HFFs), IE antigen immunofluorescence; format: cell-based, Human cytomegalovirus; conditions: increasing concentrations, pre-incubated 2 h
Experimental: For testing the inhibitory effect of antivirals or fusion proteins on HCMV, the respective inhibitors were diluted in MEM and mixed with infectious supernatants, the mixtures were incubated for 2 h at 37° C. before addition to the cells. For fibroblast infection the virus-inhibitor mixture was incubated on the cells for about 24 h. If endothelial cells were included in the experiment, all cells were supplied with their respective maintenance media after 2 h, and further incubated for 22 h.
Infection efficiencies were determined by immunofluorescence staining for viral proteins. For fixation and permeabilization the cells were incubated with 80% acetone for 5 min. For HCMV infected cells the immediate early proteins pUL122/123 were detected with a mouse monoclonal (clone E13, Argene) and visualized using a Cy3 conjugated goat anti-mouse secondary antibody (Jackson Immuno Research). HSV infected cultures were stained 6 h post infection for ICP0 using a mouse monoclonal (clone 11060, Santa Cruz) and goat anti-mouse AF488 (life technologies). DAPI was used to locate nuclei. Infection rates were determined by counting the number of cell nuclei positive for the respective viral protein, as well as the total number of nuclei per image. For each condition three images were evaluated.
To test this, the inventors pre-incubated cell free preparations of HCMV strain TB40/E with variable concentrations of soluble PDGFR-alpha-Fc chimeras for 2 h before adding them to HFFs and HECs. After 2 h the virus was removed and replaced with the appropriate cell culture medium for an overnight incubation. Cultures were then fixed, and the fraction of infected cells was determined by indirect immunofluorescence staining of viral IE antigens.
Cell free preparations of TB40/E were pre-incubated with increasing concentrations of the various Fc chimeras for 2 h. HFFs were then incubated with the mixtures for 2 h followed by a medium exchange and an overnight incubation.

HCMV particles = experiment: Binding of chimeric receptors (Fc-fusion proteins) to HCMV particles; parameters: species or system Human cytomegalovirus; conditions: particles pre-incubated with Fc-fusion protein, attached to cells on ice
Experimental: To assess the binding of Fc-Proteins to virus particles, HFFs were seeded at a density of 40,000 cells per well on IBIDI plates 1 day prior to infection. Virus preparations were pre-incubated with Fc-fusion proteins at a final concentration of 500 ng/ml for 2 h at 37° C. The virus/Fc-protein mixtures were incubated with the cells for 1.5 h on ice. Before fixation with 80% acetone, the cells were washed once with MEM. For staining of viral particles mouse hybridoma recognizing the abundant viral protein pp150 (generously provided by W. Britt, Sanchez 2000) used.
The inventors tested this by staining of adsorbed virus particles with the Fc-fusion proteins. […] Virus particles were stained for the capsid protein pp150 and bound Fc-fusion proteins.
The inventors analyzed the mode of inhibition by PDGFR-alpha-Fc. For this, the binding of different concentrations of the fusion protein was quantified by assessing the particle intensities after staining with anti-human antibody (FIG. 5). […] (FIGS. 4 and 5).

Row | Molecule | inhibition at 10 nmol/ml (HCMV strain TB40/E [1]; 10 nmol/ml) | EC50 (HCMV strain TB40/E [1]; pre-incubated 2 h, read-out: EC50 of inhibition of HCMV infection by peptide) | inhibitory potential of Fc chimeras on HCMV infection of HFFs (HCMV strain TB40/E [2]) | binding of Fc-fusion protein to virus particles (anti-human antibody staining) (HCMV particles)
1 | GRHIYIYVPDPDVAFVPLGMTDYLVIVEDDDSAIIPCRTT [peptide between aa90 and aa130] | almost complete inhibition | 2000 nM | – | –
2 | B1 | – | – | neither PDGFR-beta-Fc nor EGFR-Fc had an effect | visualized only those particles that were pre-treated with PDGFR-alpha-Fc
